{
  "source": "patent US20050261246A1",
  "about": "“Methods for treating inflammatory and autoimmune diseases” (priority 2004, published 2005)",
  "key": {"[1]": {"test_system": "CD11c+/CD40+/CD86+ spleen cells", "assay": "Splenic dendritic, B and T cells in non-CAIA Balb/c mice treated with SNS (FACS)", "format": "in vivo, mouse", "settings": "5 mg/kg i.p. five consecutive days", "protocol": "(A) Reduction of CD11c+/CD40+/CD86+ cells isolated from spleens of non-CAIA Balb/c mice treated i.p. with SNS at 5 mg/kg or with PBS for 5 consecutive days. Spleens were isolated on the next day after the last SNS injection and splenocytes were analyzed using FACS. The percentage value represents CD11c+/CD40+/CD86+ cell percentage out of the entire splenocyte population. […] Values on X and Y axes represent fluorescence intensity for cell surface markers CD11c and CD40, B220, and CD90.2 (Thy-1), respectively.\nBalb/c mice were treated i.p. with SNS for five consecutive days at 5 mg/kg and their spleen were harvested the next day after the last injection. Control mice received same numbers of injection of PBS. Splenic cells were stained with fluorescence-labeled antibodies, and analyzed by flow cytometry."}, "TNFα production": {"test_system": "TNFα production", "assay": "TNFα production from splenic cultures of Balb/c mice treated with SNS", "format": "in vivo, mouse", "settings": "non-CAIA Balb/c mice treated 5 days, p<0.01", "protocol": "Balb/c mice (n=5) were treated i.p. with SNS at 5 mg/Kg or with PBS for 5 consecutive days. Spleen were isolated on the next day after the last SNS injection and the splenocytes were stimulated with anti-CD3 antibody or LPS for 24 hrs, and supernatant were analyzed for TNF-α production.\nIsolated splenic cells were cultured with either immobilized […] (50 ug/ml) or 1 ug/ml LPS for […]. Cells without any stimulation were included as control. The supernatants from these cultures were analyzed for TNFα using BD™ CBA Mouse Inflammatory Kit (BD Biosciences), according to the manufacture's procedure. The average TNF concentration in each culture was derived from 2-3 independent experiments of 4-5 mice per group per experiment. No arthritis was induced in these experiments. […] Thus, TNFα production was reduced in the splenic culture of SNS-treated mice, in response to T cell activation by anti-CD3 antibody."}, "[2]": {"test_system": "VEGF production in human cancer cell lines", "assay": "VEGF production in human cancer cell lines (ELISA)", "format": "cell-based", "protocol": "(A) Effect of SNS on VEGF production was analyzed in two cancer cell lines (both supernatants and cell lysates). (B) The supernatant from control and drug treated H460 cells was analyzed for the level of VEGF (pg/ml). C. […] Statistical analyses were performed using one-way ANOVA.\nAs discussed above, SNS and pancratastatin were originally synthesized as an anti-cancer agent. The inventors also examined the effect of SNS and pancratastatin on the production of VEGF in human cancer cell lines (FIG. 2). […] This analysis had been performed at least 3-5 times depending on the cell lines and drug used, with statistical analysis performed using one-way ANOVA."}},
  "data": [
    {"smiles": "O=C1N[C@@H]2C(=C[C@H](O)[C@H]3OP(=O)(O)O[C@H]32)c2cc3c(c(O)c21)OCO3", "note": "[SNS, sodium narcistatin]", "values": [
      {"measurement": "CD11c+/CD86+/CD40+ spleen cells (mature dendritic cells)", "setting": "[1]", "value": "reduction of CD11c+/CD86+/CD40+ spleen cells"},
      {"measurement": "T- and B-cell profile (B220, CD90.2)", "setting": "[1]", "value": "not affected"},
      {"measurement": "TNFα in splenic cultures stimulated with anti-CD3", "setting": "TNFα production", "value": "significant reduction of TNFα"},
      {"measurement": "VEGF production, narcistatin compared with pancratistatin", "setting": "[2]", "value": "comparable inhibition on VEGF production"},
      {"measurement": "effect on VEGF production/secretion", "setting": "[2]; human cancer cell lines, ELISA", "value": "significantly suppresses the secretion of VEGF"}
    ]}
  ]
}
